Source: patent US11407822B2, “Treatment of fibrodysplasia ossificans progressiva” (REGENERON PHARMACEUTICALS, INC., priority 2014, dated 2022)

Assays:
[1] = system: Acvr1[R206H]COIN/+; Gt(ROSA26)SorCreERt2/+ mice; experiment: Example 2: ectopic bone formation in a mouse model of FOP after tamoxifen, in vivo μCT (ACVR1 kinase inhibitor); conditions: for mice showing ectopic bone formation / size of ectopic bone lesions: 3 mg/kg twice daily for 4 weeks; for mice showing ectopic bone formation: 4 weeks post initiation of tamoxifen, μCT; for size of ectopic bone lesions: versus vehicle control group
Text: (§1) ACVR1 and/or ACVR2 antagonists and variants or fragments thereof can also be screened for activity in an in vivo assay. For example, ACVR1 or ACVR2 antagonists or variants thereof can be screened for their ability to treat FOP in a mouse model of FOP (e.g., ability to decrease ectopic bone formation). Transgenic knock-in mice have been developed that carry a conditional allele encoding Acvr1[R206H]. These Acvr1^[R206H]COIN/+ mice are described in U.S. Ser. No. 14/207,320 and PCT/US2014/026582, which are incorporated by reference herein in its entirety. This allele expresses the R206H variant only after activation by Cre recombinase. This allows Cre-dependent activation of Acvr1[R206H] expression at specific tissues and at specific time by using different types of Cre driver lines. In this manner the resulting mice also bypass the perinatal lethality that has been observed with a non-regulated knock-in allele of Acvr1[R206H]. Activation of Acvr1[R206H] expression in young or in adult mice results in ectopic bone formation. […] Tamoxifen activates expression of Cre which then acts upon the Acvr1^[R206H]COIN/+ to convert it to Acvr1^[R206H]/+, thereby converting the genotype of the mice to mirror the genotype of the FOP patients that are ACVR1[R206H]. The Acvr1^[R206H] allele expresses Acvr1[R206H], and that is adequate to drive the development of FOP in the Acvr1^[R206H]/+; Gt(ROSA26)Sor^CreERt2/+ mice. This bypasses the embryonic lethality experienced with conventional Acvr1^[R206H] knock-in mice, Acvr1^tm1Emsh (http://www.informatics.jax.org/allele/key/828153). After tamoxifen treatment, the ACVR1, ACVR2A and/or ACVR2B antagonists or a control can be administered to the Acvr1^[R206H]COIN/+; Gt(ROSA26)Sor^CreERt2/+ mice and the animals monitored for ectopic bone formation. See Chakkalakal S A, et al. (20120 An Acvr1 R206H knock-in mouse has fibrodysplasia ossificans progressiva. J Bone Miner Res. 27(8):1746-56. This assay is described in detail in the Examples below.
16 Acvr1^[R206H]COIN/+; Gt(ROSA26)Sor^CreERt2/+ mice were given tamoxifen at 1 mg/mouse dose i.p. for eight days. Eight mice were treated with 3 mg/kg of the ACVR1 kinase inhibitor LDN-212854 (Mohedas et al. (2013) ACS Chem. Biol. 8:1291-1302) twice daily for 4 weeks. Eight mice were treated with vehicle control twice daily for 4 weeks. Mice were monitored using in vivo μCT at baseline, 2 and 4 weeks post initiation of tamoxifen administration.

[2] = system: Activin A mediated signaling through ACVR2A and/or ACVR2B; conditions: as described for the antibody in US2015/0037339 or U.S. Pat. No. 8,309,082; cited from earlier work
[3] = system: Acvr1[R206H]COIN/+; Gt(ROSA26)SorCreERt2/+ mice; experiment: Example 5: ectopic bone formation in a mouse model of FOP after tamoxifen, in vivo μCT, dose comparison of Activin A antibody; conditions: for mice that developed ectopic bone: nine mice, after 4 weeks, μCT; for average total volume of ectopic bone: at 6.5 weeks, calculated from μCT images
Text: as §1
35 Acvr1[R206H]COIN/+; Gt(ROSA26)SorCreERt2/+ mice were given with tamoxifen at 40 mg/kg i.p. for eight days. Eight mice were treated with 25 mg/kg isotype control antibody (REGN1945), nine mice were treated with 25 mg/kg of Activin A antibody (H4H10446P) (REGN2477), nine mice were treated with 10 mg/kg of Activin A antibody (REGN2477) and nine mice were treated with 1 mg/kg of Activin A antibody (REGN2477) weekly for 6 weeks. Mice were monitored using in vivo μCT at baseline, 2, 3, 4 and 6.5 weeks post initiation of tamoxifen administration. The volume of ectopic bone in each mouse was calculated from μCT images. […] At 6.5 weeks the average total volume of ectopic bone in the isotype treated group was 65.4 mm3 compared to 1.87 mm^3 in the 25 mg/kg, 0.3 mm^3 in the 10 mg/kg and 7.3 mm^3 in the 1 mg/kg Activin antibody treated groups.

[4] = target: T1, Activin A binding to ACVR2A or ACVR2B (Homo sapiens, UniProt P08476); conditions: as described for the antibody in US2015/0037339 or U.S. Pat. No. 8,309,082; cited from earlier work
T1 sequence (P08476 311-426): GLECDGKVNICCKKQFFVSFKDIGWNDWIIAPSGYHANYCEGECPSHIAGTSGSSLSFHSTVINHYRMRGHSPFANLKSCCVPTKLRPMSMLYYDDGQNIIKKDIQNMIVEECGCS

[5] = system: Acvr1[R206H]COIN/+; Gt(ROSA26)SorCreERt2/+ mice; experiment: Example 4: ectopic bone formation in a mouse model of FOP after tamoxifen, in vivo μCT (Activin A antibody, Acvr2a/Acvr2b antibody); conditions: for protection from / inhibition of ectopic bone formation after tamoxifen treatment: mouse, in vivo
Text: as §1, with “See Chakkalakal S A, et al. (20120 An Acvr1 R206H knock-in mouse has fibrodysplasia ossificans progressiva. J Bone Miner Res. 27(8):1746-56. This assay is described in detail in the Examples below.” left out
26 Acvr1[R206H]COIN/+; Gt(ROSA26)SorCreERt2/+ mice were given with tamoxifen at a 40 mg/kg dose i.p. for eight days. […] Mice were monitored using in vivo μCT at baseline, 2, 3 and 4 weeks post initiation of tamoxifen administration. […]

[6] = system: Acvr1[R206H]COIN/+; Gt(ROSA26)SorCreERt2/+ mice; experiment: Example 3: ectopic bone formation in a mouse model of FOP after tamoxifen, in vivo μCT (Activin A antibody, ACVR2a-Fc)
Text: ACVR1 and/or ACVR2 antagonists and variants or fragments thereof can also be screened for activity in an in vivo assay. For example, ACVR1 or ACVR2 antagonists or variants thereof can be screened for their ability to treat FOP in a mouse model of FOP (e.g., ability to decrease ectopic bone formation). Transgenic knock-in mice have been developed that carry a conditional allele encoding Acvr1[R206H]. These Acvr1^[R206H]COIN/+ mice are described in U.S. Ser. No. 14/207,320 and PCT/US2014/026582, which are incorporated by reference herein in its entirety. This allele expresses the R206H variant only after activation by Cre recombinase. This allows Cre-dependent activation of Acvr1[R206H] expression at specific tissues and at specific time by using different types of Cre driver lines. […] After tamoxifen treatment, the ACVR1, ACVR2A and/or ACVR2B antagonists or a control can be administered to the Acvr1^[R206H]COIN/+; Gt(ROSA26)Sor^CreERt2/+ mice and the animals monitored for ectopic bone formation. […]
23 Acvr1^[R206H]COIN/+; Gt(ROSA26)^SorCreERt2/+ mice were treated with tamoxifen at 1 mg/mouse dose i.p. for eight days. […] Mice were monitored using in vivo micro computer tomography (μCT) at baseline, 2 and 3 weeks post initiation of tamoxifen administration. […]

| Molecule | mice showing ectopic bone formation [1] | mice showing ectopic bone formation ([1]; listed as LDN212854) | size of ectopic bone lesions [1] | size of ectopic bone lesions ([1]; listed as LDN212854) | protection from ectopic bone formation after tamoxifen treatment ([1]; LDN-212854 treatment) | inhibition of Activin A signal transduction through ACVR2A and/or ACVR2B [2] | mice that developed ectopic bone ([3]; 1 mg/kg weekly) | average total volume of ectopic bone ([3]; 1 mg/kg weekly) | mice that developed ectopic bone ([3]; 10 mg/kg weekly) | average total volume of ectopic bone ([3]; 10 mg/kg weekly) | mice that developed ectopic bone ([3]; 25 mg/kg weekly) | average total volume of ectopic bone ([3]; 25 mg/kg weekly) | effectiveness of varying doses against ectopic bone formation (FIG. 5) ([3]; doses 1, 10 and 25 mg/kg versus isotype control antibody) | protection from ectopic bone formation after tamoxifen treatment ([3]; mouse, in vivo) | inhibition of Activin A binding to ACVR2A and/or ACVR2B [4] | mice that developed ectopic bone ([5]; 10 mg/kg twice weekly, nine mice per group, 4 weeks post initiation of tamoxifen, μCT) | protection from / inhibition of ectopic bone formation after tamoxifen treatment ([5]; listed as Activin A) | protection from / inhibition of ectopic bone formation after tamoxifen treatment ([5]; listed as antibody against Activin A) | mice showing development of ectopic bone ([6]; 25 mg/kg twice weekly, eight mice, 3 weeks post initiation of tamoxifen, μCT) | inhibition of formation of ectopic bone nodules (FIG. 3) ([6]; compared with isotype control antibody and ACVR2A-Fc) |
| --- | --- | --- | --- | --- | --- | --- | --- | --- | --- | --- | --- | --- | --- | --- | --- | --- | --- | --- | --- | --- |
| c1cc(-c2cnn3cc(-c4ccc(N5CCNCC5)cc4)cnc23)c2cccnc2c1 [LDN-212854] | 3 out of 8 | No ectopic bone nodules could be detected in mice numbered 10, 11, 14, 15 or 16 | small compared to the vehicle control group | Small ectopic bone nodules have formed in mice numbered 9, 12 and 13 | protected from ectopic bone formation | – | – | – | – | – | – | – | – | – | – | – | – | – | – | – |
| H4H10446P: Antibody against Activin A designated H4H10446P in US2015037339; heavy and light chain variable regions present SEQ ID NOs:1 and 5 | – | – | – | – | – | inhibits Activin A mediated signaling through ACVR2A and/or ACVR2B | 2 mice | 7.3 mm^3 | 2 mice | 0.3 mm^3 | 2 mice | 1.87 mm^3 | Dosages between 1 mg/kg and 25 mg/kg were shown to be effective with 10 mg/kg being the most effective dose tested | protected from ectopic bone formation | does not inhibit strongly, if at all | one | protected from ectopic bone formation | inhibited formation of ectopic bone nodules | none | inhibited formation of ectopic bone nodules most effectively |
